Laboratory results published in patent US20170037028A1 (BAYER PHARMA AKTIENGESELLSCHAFT, priority 2013, published 2017).
Where two headings read alike, the source gives them in different places.

Molecular target: T1, GLUT1 (Homo sapiens, UniProt P11166)
T1 sequence (P11166 1-492): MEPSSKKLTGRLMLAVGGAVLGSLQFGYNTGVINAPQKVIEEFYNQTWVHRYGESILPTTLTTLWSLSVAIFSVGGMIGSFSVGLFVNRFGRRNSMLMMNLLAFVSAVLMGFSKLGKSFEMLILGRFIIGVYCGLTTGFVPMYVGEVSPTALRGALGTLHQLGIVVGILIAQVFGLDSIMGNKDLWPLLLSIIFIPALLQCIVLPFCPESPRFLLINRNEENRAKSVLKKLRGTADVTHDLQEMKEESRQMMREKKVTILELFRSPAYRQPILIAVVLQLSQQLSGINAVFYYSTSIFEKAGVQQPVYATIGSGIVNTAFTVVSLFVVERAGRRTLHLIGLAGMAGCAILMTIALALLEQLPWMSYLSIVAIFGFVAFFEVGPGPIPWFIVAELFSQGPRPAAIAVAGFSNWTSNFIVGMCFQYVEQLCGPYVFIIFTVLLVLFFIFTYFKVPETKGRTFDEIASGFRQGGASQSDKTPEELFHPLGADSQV
Experiment: Indirect measurement of GLUT1 activity by quantification of intracellular ATP levels (glucose induced ATP increase)
Type: cell-based
Design: endogenous in cells; host or cells: DLD1 or CHO-K1
Conditions: read-out: IC50 regarding glucose induced ATP increase (GLUT1 inhibition)
In short: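 Intracellular ATP was measured by CellTiter-Glo luminescence as an indirect readout of transport: glucose-driven for GLUT1, fructose-driven for GLUT2. DLD1 or CHO-K1 cells were used alongside an oxidative phosphorylation inhibitor. Beforehand, cells were held overnight in glucose-free 1% FCS medium to deplete ATP.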

| Structure (SMILES) | IC50 [nM] | IC50 (DLD1 cells, 0.1 mM glucose, 1 μM Rotenone, 15 min, CellTiter-Glo ATP readout, IC50 values standardized to cytochalasin B IC50 values) [nM] |
| --- | --- | --- |
| CNC(=O)c1nc(Cn2nc(C(F)(F)F)c(NC(=O)c3cc(C(N)=O)nc4cc(F)ccc34)c2C)no1 [Example 1559] | 72.7 | – |
| Cc1cc(Cn2nc(C)c(NC(=O)c3cc(C(N)=O)nc4ccccc34)c2C)on1 [Example 1560] | 39.8 | – |
| Cc1cc(Cn2nc(C)c(NC(=O)c3cc(C(N)=O)nc4cc(F)ccc34)c2C)on1 [Example 1561] | 10.4 | – |
| Cc1nn(Cc2cc(C(C)C)no2)c(C)c1NC(=O)c1cc(C(N)=O)nc2ccccc12 [Example 1562] | 55.9 | – |
| Cc1nn(Cc2cc(C(C)C)no2)c(C)c1NC(=O)c1cc(C(N)=O)nc2cc(F)ccc12 [Example 1563] | 35.5 | – |
| Cc1c(NC(=O)c2cc(C(=O)N3CCOCC3)nc3ccc(F)cc23)c(C(F)(F)F)nn1Cc1ccc(C#N)cc1 [Example 1564] | 112 | – |
| Cc1c(NC(=O)c2cc(C(N)=O)nc3cccc(O)c23)c(C(F)(F)F)nn1Cc1ccc(C#N)cc1 [Example 1565] | 21 | – |
| Cc1nn(Cc2cc(C#N)no2)c(C)c1NC(=O)c1cc(C(N)=O)nc2cc(F)ccc12 [Example 1566] | 14.2 | – |
| Cc1nn(Cc2cnn(C)c2C)c(C)c1NC(=O)c1cc(C(N)=O)nc2ccccc12 [Example 1567] | 84.4 | – |
| Cc1nc(Cn2nc(C)c(NC(=O)c3cc(C(N)=O)nc4ccccc34)c2C)cs1 [Example 1568] | 27.3 | – |
| Cc1nn(Cc2ccn(C)n2)c(C)c1NC(=O)c1cc(C(N)=O)nc2ccccc12 [Example 1569] | 67.5 | – |
| CCc1noc(Cn2nc(C)c(NC(=O)c3cc(C(F)(F)F)nc4ccc(Br)cc34)c2C)n1 [Example 1570] | 48.2 | – |
| Cc1c(NC(=O)c2cc(S(N)(=O)=O)nc3ccccc23)c(C(F)(F)F)nn1Cc1ccc(C#N)cc1 [Example 1572] | 219 | – |
| Cc1nn(Cc2ccc(C#N)cc2)c(C)c1NC(=O)c1cc(S(N)(=O)=O)nc2ccccc12 [Example 1573] | 419 | – |
| CNS(=O)(=O)c1cc(C(=O)Nc2c(C(F)(F)F)nn(Cc3ccc(C#N)cc3)c2C)c2ccccc2n1 [Example 1574] | 49.3 | – |
| CNS(=O)(=O)c1cc(C(=O)Nc2c(C)nn(Cc3ccc(C#N)cc3)c2C)c2ccccc2n1 [Example 1575] | 37.9 | – |
| Cc1c(NC(=O)c2cc(S(=O)(=O)N(C)C)nc3ccccc23)c(C(F)(F)F)nn1Cc1ccc(C#N)cc1 [Example 1576] | 20.6 | – |
| Cc1nn(Cc2ccc(C#N)cc2)c(C)c1NC(=O)c1cc(S(=O)(=O)N(C)C)nc2ccccc12 [Example 1577] | 9.7 | – |
| Cc1c(NC(=O)c2cc(C(N)=O)nc3cc(F)ccc23)c(C(F)(F)F)nn1Cc1cccc(C#N)c1 [Example 1578] | – | 25 |
| Cc1c(NC(=O)c2cc(C(N)=O)nc3ccccc23)c(C(F)(F)F)nn1Cc1cccc(C#N)c1 [Example 1579] | 23.4 | – |
| Cc1c(NC(=O)c2cc(C(N)=O)nc3cc(F)c(Cl)cc23)c(C(F)(F)F)nn1Cc1cccc(C#N)c1 [Example 1580] | 1.8 | – |
| Cc1c(NC(=O)c2cc(C(N)=O)nc3cccc(F)c23)c(C(F)(F)F)nn1Cc1cccc(C#N)c1 [Example 1581] | 26.9 | – |
| COCc1ccc(Cn2nc(C)c(NC(=O)c3cc(C(N)=O)nc4cc(F)ccc34)c2C)cc1 [Example 1582] | 3.9 | – |
| Cc1nn(Cc2cccc(OC(F)(F)F)c2)c(C)c1NC(=O)c1cc(C(N)=O)nc2cc(F)c(Cl)cc12 [Example 1583] | 11.4 | – |
| Cc1c(NC(=O)c2cc(C(N)=O)nc3cccc(F)c23)c(C(F)(F)F)nn1Cc1cccc(OC(F)(F)F)c1 [Example 1584] | 544 | – |
| Cc1nn(Cc2cccc(OC(F)(F)F)c2)c(C)c1NC(=O)c1cc(C(N)=O)nc2ccccc12 [Example 1585] | 45.5 | – |

| Structure (SMILES) | IC50 [nM] | IC50 (DLD1 cells, 0.1 mM glucose, 1 μM Rotenone, 15 min, CellTiter-Glo ATP readout, IC50 values standardized to cytochalasin B IC50 values) [nM] |
| --- | --- | --- |
| Cc1nn(Cc2cccc(OC(F)(F)F)c2)c(C)c1NC(=O)c1cc(C(N)=O)nc2cc(F)ccc12 [Example 1586] | 36.9 | – |
| Cc1nn(Cc2cccc(OC(F)(F)F)c2)c(C)c1NC(=O)c1cc(C(N)=O)nc2cccc(F)c12 [Example 1587] | 41.8 | – |
| COc1ccccc1Cn1nc(C(F)(F)F)c(NC(=O)c2cc(C(N)=O)nc3cc(F)ccc23)c1C [Example 1588] | 175 | – |
| Cc1c(NC(=O)c2cc(C(N)=O)nc3cc(F)c(Cl)cc23)c(C(F)(F)F)nn1Cc1ccc(C(F)(F)F)cc1 [Example 1589] | 13.9 | – |
| Cc1c(NC(=O)c2cc(C(N)=O)nc3cc(F)ccc23)c(C(F)(F)F)nn1Cc1ccc(C(F)(F)F)cc1 [Example 1590] | 9.8 | – |
| Cc1c(NC(=O)c2cc(C(N)=O)nc3cccc(F)c23)c(C(F)(F)F)nn1Cc1ccc(C(F)(F)F)cc1 [Example 1591] | 16.6 | – |
| Cc1c(NC(=O)c2cc(C(N)=O)nc3ccccc23)c(C(F)(F)F)nn1Cc1ccc(CC#N)cc1 [Example 1592] | 1.3 | – |
| Cc1c(NC(=O)c2cc(C(N)=O)nc3cccc(F)c23)c(C(F)(F)F)nn1Cc1ccc(CC#N)cc1 [Example 1593] | 1.3 | – |
| Cc1c(NC(=O)c2cc(C(N)=O)nc3cc(F)c(Cl)cc23)c(C(F)(F)F)nn1Cc1ccc(CC#N)cc1 [Example 1594] | 1.1 | – |
| Cc1c(NC(=O)c2cc(C(N)=O)nc3ccc(Br)cc23)c(C(F)(F)F)nn1Cc1ccc(CC#N)cc1 [Example 1595] | 1.6 | – |
| Cc1c(NC(=O)c2cc(C(N)=O)nc3cc(F)ccc23)c(C(F)(F)F)nn1Cc1ccc(C(C)(C)C#N)cc1 [Example 1596] | 67.2 | – |
| Cc1c(NC(=O)c2cc(C(N)=O)nc3cccc(F)c23)c(C(F)(F)F)nn1Cc1ccc(C(C)(C)C#N)cc1 [Example 1597] | 89.9 | – |
| Cc1nn(Cc2ccc(C(F)(F)F)cc2)c(C)c1NC(=O)c1cc(C(N)=O)nc2cc(F)c(Cl)cc12 [Example 1598] | 1.4 | – |
| Cc1nn(Cc2ccc(C(F)(F)F)cc2)c(C)c1NC(=O)c1cc(C(N)=O)nc2cc(F)ccc12 [Example 1599] | 6.5 | – |
| Cc1nn(Cc2ccc(C(F)(F)F)cc2)c(C)c1NC(=O)c1cc(C(N)=O)nc2cccc(F)c12 [Example 1600] | 3.5 | – |
| Cc1c(NC(=O)c2cc(C(N)=O)nc3cc(F)ccc23)c(C(F)(F)F)nn1Cc1cccc(C(N)=O)c1 [Example 1601] | 24.6 | – |
| Cc1c(NC(=O)c2cc(C(N)=O)nc3cccc(F)c23)c(C(F)(F)F)nn1Cc1cccc(C(N)=O)c1 [Example 1602] | 29.3 | – |
| Cc1c(NC(=O)c2cc(C(N)=O)nc3cc(F)c(Cl)cc23)c(C(F)(F)F)nn1Cc1cccc(C(N)=O)c1 [Example 1603] | 5.8 | – |
| CC(=O)c1ccc(Cn2nc(C(F)(F)F)c(NC(=O)c3cc(C(N)=O)nc4ccccc34)c2C)cc1 [Example 1604] | 4.7 | – |
| CC(=O)c1ccc(Cn2nc(C(F)(F)F)c(NC(=O)c3cc(C(N)=O)nc4cc(F)ccc34)c2C)cc1 [Example 1605] | 2.6 | – |
| CC(=O)c1ccc(Cn2nc(C(F)(F)F)c(NC(=O)c3cc(C(N)=O)nc4cccc(F)c34)c2C)cc1 [Example 1606] | 2.4 | – |
| CC(=O)c1ccc(Cn2nc(C)c(NC(=O)c3cc(C(N)=O)nc4ccccc34)c2C)cc1 [Example 1607] | 3.5 | – |
| CC(=O)c1ccc(Cn2nc(C)c(NC(=O)c3cc(C(N)=O)nc4cc(F)ccc34)c2C)cc1 [Example 1608] | 4 | – |
| CC(=O)c1ccc(Cn2nc(C)c(NC(=O)c3cc(C(N)=O)nc4cccc(F)c34)c2C)cc1 [Example 1609] | 1.2 | – |
| Cc1ccc2c(C(=O)Nc3c(C(F)(F)F)nn(Cc4ccc(C#N)cc4)c3C)cc(C(N)=O)nc2c1 [Example 1610] | 8.4 | – |
